Results on 76 compounds are retold here after patent US11116757B2 (priority 2015, dated 2021).

Where only a bound is given, the exact number is not on record here.

One test deals with DCN1-UBC12 interaction (Homo sapiens (Human), UniProt Q96GG9). Kind of test: biochemical. The note with it: TR-FRET IC50. It is filed as binding. Background: In TR-FRET formats the signal depends on donor and acceptor labels being close together.
Chain of DCN1-UBC12 interaction (Q96GG9 60-248 limits assumed): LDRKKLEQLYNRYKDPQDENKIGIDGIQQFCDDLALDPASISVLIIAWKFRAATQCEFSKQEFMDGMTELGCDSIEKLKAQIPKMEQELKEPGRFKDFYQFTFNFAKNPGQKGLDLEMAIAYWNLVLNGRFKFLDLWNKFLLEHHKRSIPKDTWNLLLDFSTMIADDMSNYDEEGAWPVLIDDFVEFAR
The IC50 is the concentration that inhibits the measured activity by half. In the case of `CCCC(C)N1CCC(N(Cc2ccccc2)C(=O)Nc2ccc(Cl)cc2)CC1` (stereo not shown) [A13], the IC50 turned out to be 0.083 µM.

As to `CCCC(C)N1CCC(N(Cc2ccccc2)C(=O)Nc2cccc(C(C)C)c2)CC1` (stereo not shown) [A33], the midpoint of inhibition, the IC50, lay at 0.2 µM.

The compound `CCCC(C)N1CCC(N(Cc2ccccc2)C(=O)Nc2ccc(F)c(C(F)(F)F)c2)CC1` (stereo not shown) [A57] came in with an IC50 of 0.315 µM.

Still in this test, the particulars now being: Table 4, commercial compounds; read-out: TR-FRET IC50.
For `O=C(Nc1ccc(F)c(Cl)c1)C1CCN(C(=O)c2ccc(Cl)cc2)CC1` [C66], the IC50 is greater than 75.6 µM.

Regarding `O=C(Nc1ccccc1Br)C1CCN(C(=O)c2ccccc2Cl)CC1` [C17], the half-maximal inhibitory concentration (IC50) was greater than 67.6 µM.

For `O=C(Nc1ccc(Cl)c(C(F)(F)F)c1)C1CCN(C(=O)c2ccc(Br)cc2)CC1` [C29], the IC50 was greater than 67.6 µM.

`COc1cccc(NC(=O)C2CCN(C(=O)c3cnn(-c4ccccc4)c3-n3cccc3)CC2)c1` [C8]: the concentration for half-maximal inhibition (IC50) was greater than 67.6 µM.

Regarding `CSc1cccc(NC(=O)C2CCN(C(=O)c3ccc(F)cc3)CC2)c1` [C4], the half-inhibitory concentration (IC50) turned out to be 26.3 µM.

In the case of `O=C(Nc1ccc(Cl)cc1Cl)C1CCN(C(=O)c2ccc(F)cc2)CC1` [C15], the 50% inhibitory concentration (IC50) was greater than 67.6 µM.

As for `COc1cc(C(=O)N2CCC(C(=O)Nc3ccc(Cl)cc3)CC2)cc(OC)c1OC` [C23], the half-inhibitory concentration (IC50) is greater than 67.6 µM.

As for `CCc1cccc(NC(=O)C2CCN(C(=O)N3CC(CC)Oc4ccccc43)CC2)c1` (stereo not shown) [C56], the half-inhibitory concentration (IC50) is greater than 67.6 µM.

For the compound `COc1ccc(C(=O)N2CCC(C(=O)Nc3ccccc3C)CC2)c2ccccc12` [C62], the IC50 is greater than 67.6 µM.

On to `CC(=O)Nc1ccc(NC(=O)C2CCN(C(=O)c3cccs3)CC2)cc1` [C35], for which the IC50 is greater than 67.6 µM.

The test is the same for the next values; noted with them: Table 6, commercial compounds; read-out: TR-FRET IC50.
As for `COCCN1CCN(C(=O)c2cnn(-c3nccc(-c4cccs4)n3)c2C2CC2)CC1` [E13], the concentration for half-maximal inhibition (IC50) came to 28.8 µM.

Regarding `C=CCN(CC=C)C(=O)c1cnn(-c2nccc(-c3cccs3)n2)c1COC` [E39], the half-inhibitory concentration (IC50) was greater than 67.6 µM.

With `Cc1cnc(-n2ncc(C(=O)N3CCN(C(C)C)CC3)c2C)nc1-c1cccs1` [E35], the IC50 is greater than 67.6 µM.

`CCN(CC)CCN(CC)C(=O)c1cnn(-c2nccc(-c3cccs3)n2)c1COC` [E22]: the IC50 was 54.9 µM.

Regarding `CCN(CC)CCN(CC)C(=O)c1cnn(-c2ncc(C)c(-c3cccs3)n2)c1COC` [E16], the IC50 is 33.3 µM.

As to `CCN(CC)CCN(CC)C(=O)c1cnn(-c2nccc(-c3cccs3)n2)c1C(C)C` [E5], the IC50 stood at 17.4 µM.

As to `CCN(CC)CCNC(=O)c1cnn(-c2nccc(-c3cccs3)n2)c1C(C)C` [E19], the IC50 amounted to 42.1 µM.

As for `CCN(CCN(C)C)C(=O)c1cnn(-c2ncc(C)c(-c3cccs3)n2)c1C1CC1` [E53], the concentration for half-maximal inhibition (IC50) was greater than 67.6 µM.

For `COCCN(C)C(=O)c1cnn(-c2nccc(-c3cccs3)n2)c1C` [E52], the concentration for half-maximal inhibition (IC50) is greater than 67.6 µM.

The test is the same for the next values; noted with them: Table 7, commercial compounds; read-out: TR-FRET IC50.
As to `CCOc1ccc(C2c3c(C)nn(C)c3NC(=O)C2NC(=O)c2cccc(C)c2)cc1OC` (stereo not shown) [F18], the IC50 was greater than 67.6 µM.

In the case of `Cc1cccc(C(=O)NC2C(=O)Nc3c(c(C)nn3C)C2c2ccc(C(C)C)cc2)c1` (stereo not shown) [F16], the IC50 was greater than 67.6 µM.

Regarding `Cc1nn(C)c2c1C(c1ccc(Br)cc1)C(NC(=O)c1ccc(Cl)cc1)C(=O)N2` (stereo not shown) [F12], the IC50 was greater than 67.6 µM.

Turning to `Cc1nn(C)c2c1C(c1cccc(Cl)c1)C(NC(=O)c1ccc(Cl)cc1)C(=O)N2` (stereo not shown) [F28], the IC50 was greater than 67.6 µM.

As for `CCCOc1ccc(C2c3c(C)nn(C)c3NC(=O)C2NC(=O)c2cccc(C)c2)cc1OC` (stereo not shown) [F22], the 50% inhibitory concentration (IC50) is greater than 67.6 µM.

The same test, now with this note: read-out: TR-FRET IC50.
For `CCCN1CCC(NC(=O)Nc2ccc(Cl)c(Cl)c2)CC1` [B56], the IC50 is greater than 67.6 µM.

As for `CC(c1ccccc1)N1CCC(N(Cc2ccccc2)C(=O)Nc2cc(F)cc(C(F)(F)F)c2)CC1` (stereo not shown) [A148], the IC50 worked out at 4.98 µM.

Regarding `CCCCN1CCC(N(Cc2ccccc2)C(=O)Nc2ccc(OC)c(Cl)c2)CC1` [A287], the IC50 was greater than 72.5 µM.

With `Cn1ccnc1CN1CCC(N(Cc2ccccc2)C(=O)Nc2cc(F)cc(C(F)(F)F)c2)CC1` [A229], the half-inhibitory concentration (IC50) was greater than 28.6 µM.

Regarding `CCCC(C)N1CCC(N(Cc2ccccc2)C(=O)Nc2ccc(C(N)=O)cc2)CC1` (stereo not shown) [A258], the half-inhibitory concentration (IC50) was greater than 62.2 µM.

Consider `CCCC(C)N1CCC(N(Cc2ccccc2)C(=O)Nc2ccc3c(c2)OC(F)(F)O3)CC1` (stereo not shown) [A52], for which the IC50 came to 0.281 µM.

Turning to `O=C(Nc1cccc(CN2CCOCC2)c1)NC1CCN(Cc2ccccc2)CC1` [A276, 1-(1-Benzylpiperidin-4-yl)-3-(3-(Morpholinomethyl)Phenyl)Urea], the IC50 was greater than 68.7 µM.

Consider `O=C(Nc1ccccc1C(F)(F)F)NC1CCN(Cc2ccccc2)CC1` [B103], for which the concentration for half-maximal inhibition (IC50) is greater than 70.7 µM.

For the compound `CCCC(C)N1CCC(N(Cc2ccccc2)C(=O)Nc2ccc3c(c2)CCC3)CC1` (stereo not shown) [A8], the IC50 came to 0.0767 µM.

Consider `CCCCN1CCC(N(Cc2ccccc2)C(=O)Nc2cnn(C)c2)CC1` [A284], for which the IC50 was greater than 72.3 µM.

In the case of `O=C(Nc1ccc2c(c1)C(=O)NCC2)NC1CCN(Cc2ccccc2)CC1` [B122], the IC50 is greater than 84.8 µM.

For `CCCC(C)N1CCC(N(Cc2ccccc2)C(=O)Nc2ccc(CN(C)C)cc2)CC1` (stereo not shown) [A236], the IC50 is greater than 45.4 µM.

In the case of `CCCC(C)N1CCC(N(Cc2ccccc2)C(=O)Nc2ccc(I)cc2)CC1` (stereo not shown) [A4], the IC50 worked out at 0.035 µM.

Consider `CN(C)c1ccc(CN2CCC(N(Cc3ccccc3)C(=O)Nc3cc(F)cc(C(F)(F)F)c3)CC2)c2ccccc12` [A204], for which the 50% inhibitory concentration (IC50) is greater than 20.2 µM.

Consider `CCCC(C)N1CCC(N(Cc2ccccc2)C(=O)Nc2cc(S(F)(F)(F)(F)F)ccc2F)CC1` (stereo not shown) [A107], for which the half-inhibitory concentration (IC50) was found to be 2.05 µM.

With `COc1ccc(C(=O)N2CCC(c3nc4ccccc4s3)CC2)cc1OC` [D19], the IC50 was greater than 62.9 µM.

`CC(=O)c1cccc(NC(=O)NC2CCN(Cc3ccccc3)CC2)c1` [B102]: the 50% inhibitory concentration (IC50) is greater than 70.6 µM.

Regarding `O=C(Nc1cc(F)cc(C(F)(F)F)c1)N(Cc1ccccc1)C1CCN(Cc2cncn2Cc2ccccc2)CC1` [A208], the half-maximal inhibitory concentration (IC50) was greater than 21.1 µM.

For `CCc1ccc(NC(=O)NC2CCN(Cc3ccccc3)CC2)cc1` [B52], the IC50 is greater than 67.6 µM.

In the case of `O=C(NC1CCN(Cc2ccc(F)cc2)CC1)C(F)(F)F` [A305], the IC50 was greater than 92.7 µM.

Take `CC1CC(N(C)C(=O)Nc2ccccn2)CCN1Cc1ccccc1` (stereo not shown) [B106]: the 50% inhibitory concentration (IC50) was greater than 71.5 µM.

As for `CC(=O)N1CCC(N(Cc2ccco2)C(=O)Nc2ccc(Br)cc2)CC1` [B73], the IC50 is greater than 67.6 µM.

Consider `CCCN1CCC(NC(=O)Nc2cccc(Cl)c2)CC1` [B117], for which the IC50 was greater than 77.1 µM.

Consider `CCCN1CCC(N(CC(C)C)C(=O)Nc2cccc(C(F)(F)F)c2)CC1` [A146, 1-Isobutyl-1-(1-Propylpiperidin-4-yl)-3-(3-(Trifluoromethyl)Phenyl)Urea], for which the concentration for half-maximal inhibition (IC50) was 4.81 µM.

Consider `CCN1CCC(N(Cc2ccco2)C(=O)Nc2ccc(OC)c(OC)c2)CC1` [B77], for which the IC50 was greater than 67.6 µM.

In the case of `CCCC(C)N1CCC(N(Cc2ccccc2)C(=O)Nc2ccc(Cl)c([N+](=O)[O-])c2)CC1` (stereo not shown) [A11], the half-maximal inhibitory concentration (IC50) came out at 0.0818 µM.

On to `CCCC(C)N1CCC(N(Cc2ccccc2)C(=O)Nc2ccc(Br)cc2Cl)CC1` (stereo not shown) [A111], for which the IC50 was determined as 2.24 µM.

For `Cc1cccc(CN(C(=O)Nc2cccc(C(F)(F)F)c2)C2CCN(Cc3ccccc3)CC2)n1` [B5], the 50% inhibitory concentration (IC50) came out at 5.64 µM.

Take `O=C(Nc1cccc(C(F)(F)F)c1)N(Cc1ccccc1)C1CCNCC1` [A261, 1-Benzyl-1-(Piperidin-4-yl)-3-(3-(Trifluoromethyl)Phenyl)Urea]: the half-maximal inhibitory concentration (IC50) was greater than 63.3 µM.

`CCCC(C)N1CCC(N(Cc2ccccc2)C(=O)Nc2ccc3c(c2)OCO3)CC1` (stereo not shown) [A86]: the 50% inhibitory concentration (IC50) stood at 0.991 µM.

Consider `C=CC(=O)Nc1cccc(CN(C(=O)Nc2cccc(C(F)(F)F)c2)C2CCN(C(C)CCC)CC2)c1` (stereo not shown) [drawing 840], for which the 50% inhibitory concentration (IC50) came out at 0.11 µM.

For `CCCCN(C(=O)Nc1ccc(Cl)c(Cl)c1)C1CCN(C(C)CCC)CC1` (stereo not shown) [A20], the concentration for half-maximal inhibition (IC50) was 0.116 µM.

Consider `CCCC(C)N1CCC(N(Cc2ccccc2)C(=O)Nc2ccc(Oc3ccccc3)c(C(F)(F)F)c2)CC1` (stereo not shown) [A75], for which the half-inhibitory concentration (IC50) is 0.731 µM.

Regarding `CCOc1ccccc1NC(=O)N(Cc1ccc(C)o1)C1CCN(C(C)=O)CC1` [B88], the half-inhibitory concentration (IC50) is greater than 67.6 µM.

Turning to `O=C(c1ccc(Cl)c(Cl)c1)N1CCC(c2nc3ccccc3s2)CC1` [D7], the half-maximal inhibitory concentration (IC50) worked out at 19.5 µM.

`O=C(Nc1ccc(F)c(Cl)c1)N(Cc1ccc2c(c1)OCO2)C1CCN(Cc2ccccc2)CC1` [B16]: the IC50 stood at 50.7 µM.

As to `CCCCN1CCC(N(Cc2ccccc2)C(=O)Nc2cccc(C)c2)CC1` [A95], the IC50 turned out to be 1.32 µM.

For the compound `O=C(Nc1cc(F)cc(C(F)(F)F)c1)N(Cc1ccccc1)C1CCN(Cc2cc(F)c(F)c(F)c2)CC1` [A206], the concentration for half-maximal inhibition (IC50) is greater than 20.9 µM.

In the case of `CCCC(C)N1CCC(N(Cc2ccccc2)C(=O)Nc2ccccc2CC)CC1` (stereo not shown) [A270], the IC50 was greater than 67.3 µM.

On to `CCCC(C)N1CCC(N(Cc2ccccc2)C(=O)Nc2cc(F)cc(S(F)(F)(F)(F)F)c2)CC1` (stereo not shown) [A48], for which the IC50 amounted to 0.26 µM.

As to `CCCCN1CCC(N(Cc2ccccc2)C(=O)Nc2ccc(C)c(Cl)c2)CC1` [A28], the IC50 worked out at 0.166 µM.

As for `CCCN1CCC(N(CCC)C(=O)Nc2cccc(C(F)(F)F)c2)CC1` [A167, 1-Propyl-1-(1-Propylpiperidin-4-yl)-3-(3-(Trifluoromethyl)Phenyl)Urea], the 50% inhibitory concentration (IC50) came out at 10.5 µM.

For `Cc1ccc(NC(=O)NC2CCN(Cc3ccccc3)CC2)cc1Cl` [B59, 1-(1-Benzylpiperidin-4-yl)-3-(3-Chloro-4-Methylphenyl)Urea], the half-maximal inhibitory concentration (IC50) was greater than 67.6 µM.

Regarding `CC(=O)N1CCC(N(Cc2ccc(C)o2)C(=O)Nc2cc(Cl)ccc2Cl)CC1` [B89], the IC50 was greater than 67.6 µM.

Turning to `CCCC1CCC(N(Cc2ccccc2)C(=O)c2cccc(C(F)(F)F)c2)CC1` (stereo not shown) [A193], the 50% inhibitory concentration (IC50) is less than 0.0029 µM.

Take `O=C(Nc1ccccc1)NC1CCN(Cc2ccccc2)CC1` [B20, 1-(1-Benzylpiperidin-4-yl)-3-Phenylurea]: the IC50 was less than 0.0041 µM.

As for `CCCN1CCC(N(Cc2ccccc2)C(=O)Nc2cccc(C(F)(F)F)c2)CC1` [A85, 1-Benzyl-1-(1-Propylpiperidin-4-yl)-3-(3-(Trifluoromethyl)Phenyl)Urea], the half-inhibitory concentration (IC50) stood at 0.98 µM.

Regarding `CC(=O)N1CCC(N(Cc2ccco2)C(=O)Nc2cccc(C(F)(F)F)c2)CC1` [B10], the 50% inhibitory concentration (IC50) was 20.2 µM.

Regarding `O=C(Nc1cccc(C(F)(F)F)c1)NC1CCN(Cc2ccccc2F)CC1` [A238, 1-(1-(2-Fluorobenzyl)Piperidin-4-yl)-3-(3-(Trifluoromethyl)Phenyl)Urea], the IC50 is greater than 49.4 µM.
